# Experimental data published in patent publication US20060069132A1, “Azolecarboxamide herbicides” (priority 2004, published 2006).
# Tests used:
# [1] = test system: common (oilseed) sunflower; experiment: Test C pre-/postemergence herbicide test; assay type: in vivo, Helianthus annuus
# Outline: (§1)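 Preemergence: seeds planted and treated with compound in non-phytotoxic solvent with surfactant; postemergence: plants at 2 to 18 cm (1- to 4-leaf stage) sprayed likewise. Kept in greenhouse 12 to 14 days, then visually rated against controls, 0 (no effect) to 100 (complete control).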
# giant foxtail = experiment: Test C pre-/postemergence herbicide test; assay type: in vivo, Setaria faberi
# Outline: as §1
# woolly cupgrass = experiment: Test C pre-/postemergence herbicide test; assay type: in vivo, Eriochloa villosa
# Outline: as §1
# large crabgrass = experiment: Test C pre-/postemergence herbicide test; assay type: in vivo, Digitaria sanguinalis
# Outline: as §1
# rice = experiment: Test C flooded paddy test; assay type: in vivo, Oryza sativa
# Outline: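 Plants were grown to the 1- to 4-leaf stage (2–18 cm) and then treated postemergence, or grown to the 2-leaf stage for the flooded paddy test. They were held in a greenhouse for 12 to 14 days and then scored by eye against controls, where 0 is no effect and 100 is complete control.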
# lambsquarters = experiment: Test C pre-/postemergence herbicide test; assay type: in vivo, Chenopodium album
# Outline: as §1
# [2] = test system: smallflower umbrella sedge; experiment: Test C flooded paddy test; assay type: in vivo, Cyperus difformis
# pigweed = experiment: Test C pre-/postemergence herbicide test; assay type: in vivo, Amaranthus retroflexus
# Outline: as §1
# [3] = 62 g ai/ha, preemergence, scale 0 to 100
# [4] = 125 g ai/ha, scale 0 (no effect) to 100 (complete control), visual, 12 to 14 days, preemergence
# [5] = Preemergence, 500 g ai/ha, scale 0 to 100, 0 no effect, 100 complete control
# [6] = 250 g ai/ha, scale 0 to 100 (0 no effect, 100 complete control), visual, 12 to 14 days, preemergence
# [7] = 62 g ai/ha, scale 0 to 100 (0 no effect, 100 complete control)
# [8] = 125 g ai/ha, scale 0 to 100 (0 no effect, 100 complete control)
# [9] = 250 g ai/ha, scale of 0 to 100, 0 is no effect, 100 is complete control
# [10] = 500 g ai/ha, visual rating after 12 to 14 days, scale 0 to 100 (0 no effect, 100 complete control)
# [11] = 250 g ai/ha, scale 0-100, preemergence
# [12] = 500 g ai/ha, scale 0 to 100 (0 no effect, 100 complete control), visual, 12 to 14 days, preemergence
smiles,measurement,setting,value
CCNC(=O)c1ccnc(NC(=O)c2cc(C(C)(C)C)nn2CC)c1 [Compound 152],"Plant response rating, Sunflower",[1]; [3],0
same,"Plant response rating, Sunflower",[1]; [4],10
same,Sunflower plant response rating,[1]; [5],70
same,"Plant response rating, Foxtail, Giant",giant foxtail; [3],70
same,"Plant response rating, Foxtail, Giant",giant foxtail; [4],100
same,"Plant response rating, Foxtail, Giant",giant foxtail; [6],100
same,"Foxtail, Giant plant response rating",giant foxtail; [5],100
same,"Plant response rating, Cupgrass, Woolly",woolly cupgrass; [3],40
same,"Plant response rating, Cupgrass, Woolly",woolly cupgrass; [4],50
same,"Plant response rating, Cupgrass, Woolly",woolly cupgrass; [6],100
same,"Cupgrass, Woolly plant response rating",woolly cupgrass; [5],100
same,"Plant response rating, Crabgrass, Large",large crabgrass; [3],100
same,"Plant response rating, Crabgrass, Large",large crabgrass; [4],100
same,"Plant response rating, Crabgrass, Large",large crabgrass; [6],100
same,"Crabgrass, Large plant response rating",large crabgrass; [5],100
same,Rice plant response rating,rice; [7],50
same,Rice plant response rating,rice; [8],75
same,Rice plant response rating,rice; [9],75
same,"Plant response rating, Rice",rice; [10],80
same,"Plant response rating, Lambsquarters",lambsquarters; [3],100
same,"Plant response rating, Lambsquarters",lambsquarters; [4],100
same,Lambsquarters plant response rating,lambsquarters; [5],100
same,"Sedge, Umbrella plant response rating",[2]; [7],80
same,"Sedge, Umbrella plant response rating",[2]; [8],80
same,"Sedge, Umbrella plant response rating",[2]; [9],85
same,"Plant response rating, Sedge, Umbrella",[2]; [10],85
same,"Plant response rating, Pigweed",pigweed; [3],85
same,"Plant response rating, Pigweed",pigweed; [4],100
same,Pigweed plant response rating,pigweed; [5],100
"CCNC(=O)c1ccc(F)c(NC(=O)C2CN(C(C)(C)C)N=C2CC)c1 (centres unmarked) [Compound 336, 1-(1,1-dimethylethyl)-3-ethyl-N-[5-[(ethylamino)carbonyl]-2-fluorophenyl]-4,5-dihydro-1H-pyrazole-4-carboxamide]",pest or weed control at 62 g/ha,"[1]; Helianthus annuus, pre-emergence, 62 g ai/ha, preemergence, scale 0 to 100, read-out: Plant response rating, Sunflower",0%
same,pest or weed control at 250 g/ha,"[1]; Helianthus annuus, pre-emergence, 250 g ai/ha, scale 0-100, read-out: Plant response rating, Sunflower",30%
same,pest or weed control at 500 g/ha,"[1]; Helianthus annuus, pre-emergence, 500 g ai/ha, scale 0 to 100 (0 no effect, 100 complete control), visual, 12 to 14 days, read-out: Plant response rating, Sunflower",45%
same,pest or weed control at 62 g/ha,"giant foxtail; Setaria faberi, pre-emergence, 312 h, 62 g ai/ha, preemergence, scale 0 to 100, read-out: Plant response rating, Foxtail, Giant",0%
same,pest or weed control at 125 g/ha,"giant foxtail; Setaria faberi, pre-emergence, 312 h, 125 g ai/ha, scale 0 (no effect) to 100 (complete control), visual, 12 to 14 days, read-out: Plant response rating, Foxtail, Giant",5%
same,pest or weed control at 250 g/ha,"giant foxtail; Setaria faberi, pre-emergence, 312 h, 250 g ai/ha, scale 0-100, read-out: Plant response rating, Foxtail, Giant",90%
same,pest or weed control at 500 g/ha,"giant foxtail; Setaria faberi, pre-emergence, 312 h, 500 g ai/ha, scale 0 to 100 (0 no effect, 100 complete control), visual, 12 to 14 days, read-out: Plant response rating, Foxtail, Giant",90%
same,pest or weed control at 62 g/ha,"woolly cupgrass; Eriochloa villosa, pre-emergence, 312 h, 62 g ai/ha, preemergence, scale 0 to 100, read-out: Plant response rating, Cupgrass, Woolly",5%
same,pest or weed control at 125 g/ha,"woolly cupgrass; Eriochloa villosa, pre-emergence, 312 h, 125 g ai/ha, scale 0 (no effect) to 100 (complete control), visual, 12 to 14 days, read-out: Plant response rating, Cupgrass, Woolly",10%
same,pest or weed control at 250 g/ha,"woolly cupgrass; Eriochloa villosa, pre-emergence, 312 h, 250 g ai/ha, scale 0-100, read-out: Plant response rating, Cupgrass, Woolly",60%
same,pest or weed control at 500 g/ha,"woolly cupgrass; Eriochloa villosa, pre-emergence, 312 h, 500 g ai/ha, scale 0 to 100 (0 no effect, 100 complete control), visual, 12 to 14 days, read-out: Plant response rating, Cupgrass, Woolly",85%
same,pest or weed control at 62 g/ha,"large crabgrass; Digitaria sanguinalis, pre-emergence, 312 h, 62 g ai/ha, preemergence, scale 0 to 100, read-out: Plant response rating, Crabgrass, Large",100%
same,pest or weed control at 125 g/ha,"large crabgrass; Digitaria sanguinalis, pre-emergence, 312 h, 125 g ai/ha, scale 0 (no effect) to 100 (complete control), visual, 12 to 14 days, read-out: Plant response rating, Crabgrass, Large",100%
same,pest or weed control at 250 g/ha,"large crabgrass; Digitaria sanguinalis, pre-emergence, 312 h, 250 g ai/ha, scale 0-100, read-out: Plant response rating, Crabgrass, Large",100%
same,pest or weed control at 500 g/ha,"large crabgrass; Digitaria sanguinalis, pre-emergence, 312 h, 500 g ai/ha, scale 0 to 100 (0 no effect, 100 complete control), visual, 12 to 14 days, read-out: Plant response rating, Crabgrass, Large",100%
same,plant injury at 62 g/ha,"rice; Oryza sativa, 62 g ai/ha, scale 0 to 100, read-out: Rice plant response rating",10%
same,plant injury at 125 g/ha,"rice; Oryza sativa, 125 g ai/ha, scale 0 to 100 (0 no effect, 100 complete control), read-out: Rice plant response rating",45%
same,plant injury at 250 g/ha,"rice; Oryza sativa, 250 g ai/ha, scale of 0 to 100, 0 is no effect, 100 is complete control, read-out: Rice plant response rating",75%
same,plant injury at 500 g/ha,"rice; Oryza sativa, 500 g ai/ha, visual rating after 12 to 14 days, scale 0 to 100 (0 no effect, 100 complete control), read-out: Plant response rating, Rice",75%
same,pest or weed control at 62 g/ha,"lambsquarters; Chenopodium album, pre-emergence, 62 g ai/ha, preemergence, scale 0 to 100, read-out: Plant response rating, Lambsquarters",100%
same,pest or weed control at 125 g/ha,"lambsquarters; Chenopodium album, pre-emergence, 125 g ai/ha, scale 0 (no effect) to 100 (complete control), visual, 12 to 14 days, read-out: Plant response rating, Lambsquarters",100%
same,pest or weed control at 250 g/ha,"lambsquarters; Chenopodium album, pre-emergence, 250 g ai/ha, scale 0-100, read-out: Plant response rating, Lambsquarters",100%
same,pest or weed control at 500 g/ha,"lambsquarters; Chenopodium album, pre-emergence, 500 g ai/ha, scale 0 to 100 (0 no effect, 100 complete control), visual, 12 to 14 days, read-out: Plant response rating, Lambsquarters",100%
same,pest or weed control at 62 g/ha,"[2]; Cyperus difformis, 62 g ai/ha, scale 0 to 100, read-out: Sedge, Umbrella plant response rating",25%
same,pest or weed control at 125 g/ha,"[2]; Cyperus difformis, 125 g ai/ha, scale 0 to 100 (0 no effect, 100 complete control), read-out: Sedge, Umbrella plant response rating",80%
same,pest or weed control at 250 g/ha,"[2]; Cyperus difformis, 250 g ai/ha, scale of 0 to 100, 0 is no effect, 100 is complete control, read-out: Sedge, Umbrella plant response rating",85%
same,pest or weed control at 500 g/ha,"[2]; Cyperus difformis, 500 g ai/ha, visual rating after 12 to 14 days, scale 0 to 100 (0 no effect, 100 complete control), read-out: Plant response rating, Sedge, Umbrella",90%
same,pest or weed control at 62 g/ha,"pigweed; Amaranthus retroflexus, pre-emergence, 62 g ai/ha, preemergence, scale 0 to 100, read-out: Plant response rating, Pigweed",100%
same,pest or weed control at 125 g/ha,"pigweed; Amaranthus retroflexus, pre-emergence, 125 g ai/ha, scale 0 (no effect) to 100 (complete control), visual, 12 to 14 days, read-out: Plant response rating, Pigweed",100%
same,pest or weed control at 250 g/ha,"pigweed; Amaranthus retroflexus, pre-emergence, 250 g ai/ha, scale 0-100, read-out: Plant response rating, Pigweed",100%
same,pest or weed control at 500 g/ha,"pigweed; Amaranthus retroflexus, pre-emergence, 500 g ai/ha, scale 0 to 100 (0 no effect, 100 complete control), visual, 12 to 14 days, read-out: Plant response rating, Pigweed",100%
CCc1nn(C(C)(C)CC)nc1C(=O)Nc1cccc(C(=O)N(C)C)c1 [Compound 372],"Plant response rating, Sunflower",[1]; [3],0
same,"Plant response rating (0 = no effect, 100 = complete control), Sunflower","[1]; 125 g ai/ha, preemergence",0
same,"Plant response rating, Sunflower",[1]; [11],0
same,"Plant response rating, Sunflower",[1]; [12],60
same,"Plant response rating, Foxtail, Giant",giant foxtail; [3],70
same,"Plant response rating (0 = no effect, 100 = complete control), Foxtail, Giant","giant foxtail; 125 g ai/ha, preemergence",85
same,"Plant response rating, Foxtail, Giant",giant foxtail; [11],90
same,"Plant response rating, Foxtail, Giant",giant foxtail; [12],90
same,"Plant response rating, Cupgrass, Woolly",woolly cupgrass; [3],50
same,"Plant response rating (0 = no effect, 100 = complete control), Cupgrass, Woolly","woolly cupgrass; 125 g ai/ha, preemergence",60
same,"Plant response rating, Cupgrass, Woolly",woolly cupgrass; [11],70
same,"Plant response rating, Cupgrass, Woolly",woolly cupgrass; [12],100
same,"Plant response rating, Crabgrass, Large",large crabgrass; [3],70
same,"Plant response rating (0 = no effect, 100 = complete control), Crabgrass, Large","large crabgrass; 125 g ai/ha, preemergence",85
same,"Plant response rating, Crabgrass, Large",large crabgrass; [11],95
same,"Plant response rating, Crabgrass, Large",large crabgrass; [12],95
same,Rice plant response rating,"rice; 62 g ai/ha, scale 0 to 100",80
same,Rice plant response rating,rice; [8],85
same,Rice plant response rating,rice; [9],90
same,"Plant response rating, Rice",rice; [10],90
same,"Plant response rating, Lambsquarters",lambsquarters; [3],100
same,"Plant response rating (0 = no effect, 100 = complete control), Lambsquarters","lambsquarters; 125 g ai/ha, preemergence",100
same,"Plant response rating, Lambsquarters",lambsquarters; [11],100
same,"Plant response rating, Lambsquarters",lambsquarters; [12],100
same,"Sedge, Umbrella plant response rating","[2]; 62 g ai/ha, scale 0 to 100",80
same,"Sedge, Umbrella plant response rating",[2]; [8],85
same,"Sedge, Umbrella plant response rating",[2]; [9],85
same,"Plant response rating, Sedge, Umbrella",[2]; [10],85
same,"Plant response rating, Pigweed",pigweed; [3],85
same,"Plant response rating (0 = no effect, 100 = complete control), Pigweed","pigweed; 125 g ai/ha, preemergence",95
same,"Plant response rating, Pigweed",pigweed; [11],100
same,"Plant response rating, Pigweed",pigweed; [12],100
